Data as given in patent US9127301B2, “Method of detecting the presence of polycyclic aromatic hydrocarbons” (BIOO SCIENTIFIC CORPORATION, priority 2012, dated 2015).

Experiments:
NDO/NahB/NahC [1] = molecular target: T1, NDO/NahB/NahC (Pseudomonas putida, UniProt P0A110); assay: Coupled naphthalene dioxygenase/NahB/NahC colorimetric assay; type: biochemical
T1 construct: made in house; host or cells: E. coli JM109 (DE3) (pDTG141) for NDO; E. coli BL21 Star (DE3) for NahB and NahC
Excerpt: This disclosure relates to a method that uses microbial enzymes which degrade polyaromatic hydrocarbons to detect polycyclic aromatic hydrocarbons (PAH) in food and environmental samples. The first step in PAH degradation uses a PAH dioxygenase (PAHDO) enzyme such as naphthalene 1,2-dioxygenase (NDO) or biphenyl dioxygenase (BDO) to convert the PAH compound to PAH-(cis)-diol in an NADH- or NADPH-dependent manner.
The first reaction is catalyzed by the 1,2-dihydroxy-1,2-dihydronaphthalene dehydrogenase enzyme (NahB), while the second reaction is catalyzed by the enzyme 1,2-dihydroxynaphthalene dioxygenase (NahC). These enzymes are both derived from the bacteria Pseudomonas putida.
When these enzymes are used in succession, they function sequentially to convert colorless PAH compounds into a readily-detectable visible product class known as PAH chromene compounds.
(§1) 2 tubes each of NahB, Nahc, and NDO enzymes (1.7 ml aliquotes) were thawed from −20 C along with 2.6 mM NADH in water. 2.5 ml each of the NahC and NahB enzymes were desalted using PD-10 gel filtration and buffer exchanged into 20 mM Tris-Cl pH 8.5 at the same time. Once all of the reagents were thawed and desalted, positive and negative naphthalene reaction were made containing 127 ul each of NahB, NahC, and NDO with 20 ppm naphthalene in dimethylformamide (negative reactions contained only equal amounts dimethylformamide) and 0.133 mM NADH final concentration with a final reaction volume of 405 ul. The reaction was run at 25° C. for 2 hours and the sample absorbance was measured using a BioTek Synergy2 plate reader in the 320-640 nm wavelength range. […] Reactions for all PAH's conducted in the same, or a very similar format, depending on the volume of sample in the reaction. FIG. 4 depicts a spectrophotometric graph showing the absorbance caused by the presence of naphthalene placed in the above NDO/NahB/NahC assay.

NDO/NahB/NahC [2] = molecular target: T1, NDO/NahB/NahC; assay: Colorimetric detection of fluorene in spiked clam samples, NDO/NahB/NahC assay; type: biochemical; settings: clam homogenate spiked to 80 ppm fluorene, dichloromethane extraction, 10 μl of 200 ppm DMF solution in 411 μl reaction, 2 hr, 25° C.
Experimental: as §1
Approximately 25 g of clams were homogenized using a blender; a 2 g sample of this 25 g preparation was spiked to 80 ppm fluorene. […] The reaction was run for 2 hr at 25° C. and then read on a BioTek Synergy2 plate reader from 320-640 nm. FIG. 5 depicts the absorbance of fluorene spiked clam samples in the NDO/NahB/NahC assay.

T1 sequence (P0A110 whole entry): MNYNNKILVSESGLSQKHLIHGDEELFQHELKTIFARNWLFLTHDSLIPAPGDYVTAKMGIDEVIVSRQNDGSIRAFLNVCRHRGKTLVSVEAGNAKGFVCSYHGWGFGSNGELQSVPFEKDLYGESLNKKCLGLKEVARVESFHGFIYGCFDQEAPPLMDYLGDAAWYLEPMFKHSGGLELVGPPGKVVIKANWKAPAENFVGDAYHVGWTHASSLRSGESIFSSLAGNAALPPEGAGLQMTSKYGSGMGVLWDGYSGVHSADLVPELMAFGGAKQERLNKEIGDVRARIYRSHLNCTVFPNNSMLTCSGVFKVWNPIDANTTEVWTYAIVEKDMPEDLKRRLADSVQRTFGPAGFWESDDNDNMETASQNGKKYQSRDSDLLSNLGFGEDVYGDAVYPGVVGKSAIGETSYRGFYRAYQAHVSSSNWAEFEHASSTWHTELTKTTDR
T1 sequence (P0A112 whole entry, further chain): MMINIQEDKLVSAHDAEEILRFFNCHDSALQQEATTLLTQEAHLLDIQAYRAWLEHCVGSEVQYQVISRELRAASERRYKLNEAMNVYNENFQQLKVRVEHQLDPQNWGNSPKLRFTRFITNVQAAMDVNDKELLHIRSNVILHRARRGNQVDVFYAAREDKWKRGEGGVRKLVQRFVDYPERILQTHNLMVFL

| Structure (SMILES) | detection of PAH compound by the colorimetric assay (NDO/NahB/NahC [1]) | absorbance at 390 nm versus buffer control or post-extraction spike (NDO/NahB/NahC [2]) | absorbance at 370 nm versus negative control reaction (NDO/NahB/NahC [1]; 20 ppm naphthalene in dimethylformamide, 0.133 mM NADH, 25° C., 2 hours) |
| --- | --- | --- | --- |
| c1ccc2c(c1)[nH]c1ccccc12 [carbazole] | detect | – | – |
| c1ccc2c(c1)ccc1ccccc12 [phenanthrene] | detect | – | – |
| c1ccc2c(c1)Cc1ccccc1-2 [fluorene] | detect | slightly higher | – |
| c1ccc2c(c1)cc1ccc3cccc4ccc2c1c34 [benz(a)pyrene] | detect | – | – |
| c1ccc(-c2ccccc2)cc1 [biphenyl] | detect | – | – |
| c1ccc2cc3ccccc3cc2c1 [anthracene] | detect | – | – |
| c1ccc2ccccc2c1 [naphthalene] | detect | – | significantly higher |
